Assay results: US4076704A, “Dipeptide derivatives and their production” (Shionogi & Co., Ltd., priority 1974, dated 1978)

Legend:
Type in all cases: in vivo
DS male mice [1] = assay: Rotarod performance activity; settings: fall from rod within less than 2 minutes
Method: 3. Rotarod performance activity:
(§1) This test was measured on DS male mice.
The mouse was put on a scraped rod of wood, 3 cm in diameter, turning at the rate of five rotations per minute. The mice that could remain on the rod for 3 or more minutes in successive trails were selected and placed in a group of 10 mice for each dose. If the mouse fell down from the rod within less than 2 minutes, the test compound was considered to be effective. Results were shown by ED50 [Dunham, et al.: J. Am. Pharm. Assoc., 46, 208 (1957)].

DS male mice [2] = assay: Taming activity (inhibition of electroshock-induced fighting); settings: compound administered 60 minutes prior, inhibition of fighting responses, 5 pairs
Method: as §1
These pairs of mice were selected in the morning and used for drug test in the afternoon. The test compound was administered to both mice of the pairs 60 minutes prior to the experiment. Results were obtained as the mean percentage of inhibition of fighting responses in a group of 5 pairs and shown by ED50 [Tedeschi, et al.: J. Pharmacol Exp. Thev., 125, 28-34 (1959)].

DS male mice [3] = assay: Anti-pentylenetetrazol activity; settings: compound given orally 60 minutes prior to 125 mg/kg s.c. pentylenetetrazol, complete protection against mortality, observed 2 hours
Description: 1. Anti-pentylenetetrazol activity
The convulsions were disregarded.

Compound	Rotarod performance ED50 (DS male mice [1]) [mg/kg]	Taming activity ED50 (DS male mice [2]) [mg/kg]	Anti-pentylenetetrazol activity, ED50 (DS male mice [3]) [mg/kg]
CN(C(=O)CNC(=O)CN)c1ccc(Cl)cc1C(=O)c1ccccc1F.Cl [Compound 3, 2-o-fluorobenzoyl-4-chloro-N-methyl-N^α -glycyl-glycinanilide hydrochloride]	17.0	1.6	0.33
CN(C(=O)CNC(=O)CN)c1ccc(Cl)cc1C(=O)c1ccccc1Cl.O [Compound 2, 2-o-chlorobenzoyl-4-chloro-N-methyl-N^α -glycyl-glycinanilide hydrate]	–	3.0	0.58
CNC1=Nc2ccc(Cl)cc2C(c2ccccc2)=[N+]([O-])C1 [Compound 4, Chlordiazepoxide, reference compound]	50.0	–	–
CN(C(=O)CNC(=O)CN)c1ccc(Cl)cc1C(=O)c1ccccc1 [Compound 1, 2-benzoyl-4-chloro-N-methyl-N^α -glycyl-glycinanilide]	–	–	1.0
